From US8053577B2, “Derivatives of 5,9-methanocycloocta[b]pyridin-2-(1H)-one, their preparation and use as analgesics” (priority 2006, dated 2011)

Test system: mice
Assay: Analgesic effect of intragastric administration on mice measured with hot-plate test
Assay type: in vivo, ICR mice
Settings: x ± s, n = 10; for pain threshold after administration / pain threshold before administration: Table 3 screening; for pain threshold after administration: 1 hour; for pain threshold before administration: group dosed 0.6 mg/kg intragastric
Description: The analgesic effect with a single dose of the compounds represented by Formula I is preliminarily screened at single time point through hot-plate test, with fortanodyn and aspirin as positive controls. All of the compounds are administered intragastrically.
On the basis of preliminary screening results, several representative compounds were selected to test their analgesic duration, and a part of the results is listed in Table 4. The results illustrate that the analgesic duration of most compounds is longer than 2 hours after a single oral administration, and that some of the compounds have analgesic duration lasting longer than 4 hours.
Furthermore, the dose-effect relationship on an analgesic model of two compounds was tested and the results are shown in Table 5.
Analgesic effect of intragastric administration on mice measured with hot-plate test
Female ICR mice, weight 20+2 g, were purchased from Department of Laboratory Animal Science, Beijing University, animal license number: SCXK 2002-0001.
A) Samples: samples were prepared as mixtures with 0.9% NaCl solution for intragastric administration to mice.
B) Fortanodyn: 30 mg/pill (TianJin LiSheng Pharmaceutical Co. Ltd, lot number: 0201001), 1.5 mg/mL solution was prepared with 0.9% NaCl solution for intragastric administration to mice.
1) Hot-plate test on mice was employed. A thermostatic water bath was adjusted at 55±0.5° C., the bottom of metal plates contacted water surface and used as stimuli after heating. The time span(s) from the point when the mouse was placed onto the hot-plate to the time when the mouse started to lick its metapedes was determined as its pain threshold, which was recorded by stopwatch. Female mice with a weight of 20±2 g were used. The pain threshold of every mouse was measured twice before administration, and the qualified mice are the ones whose average pain threshold was less than 30 seconds.
The qualified mice were randomly grouped with 10 mice in each group. The pain threshold before administration was determined as the basic pain threshold. To the medication administration team, drugs of different dose were given through intragastric administration, whereas to the control group, 0.9% NaCl solution was given. The administration volume was 0.2 mL for every 10 g body weight. The pain threshold of each group was measured at 1 hour after administration.
After administration the pain threshold of each group at different time was measured. The experimental data was statistically treated with t-test using SPSS10 statistics software.

Row | SMILES | pain threshold after administration (0.6 mg/kg intragastric) | pain threshold before administration (baseline) | also measured
1 | CC(=O)Oc1ccccc1C(=O)O [Aspirin, reference compound] | – | – | pain threshold after administration (100 mg/kg intragastric): 18.2 ± 3.71 s; pain-threshold after administration (time course, 100 mg/kg intragastric, 30 min): 18.1 ± 5.40 s; pain-threshold after administration (time course, 100 mg/kg intragastric, 60 min): 18.0 ± 3.80 s; pain-threshold after administration (time course, 100 mg/kg intragastric, 120 min): 14.0 ± 3.63 s; pain-threshold after administration (time course, 100 mg/kg intragastric, 180 min): 14.3 ± 3.62 s
2 | C/C=C1\[C@H]2C=C(C)C[C@]1(/N=C/C=C/c1cccc(C)c1)c1ccc(=O)[nH]c1C2 [Example 4, (5R,9R,11E)-5-(3-(3-methylphenyl)prop-2-en-1-ylideneamino)-11-ethylidene-5,6,9,10-tetrahydro-7-methyl-5,9-methanocycloocta[b]pyridin-2(1H)-one] | 27.0 ± 5.40 s | 12.2 ± 3.31 s | –
3 | C/C=C1\[C@H]2C=C(C)C[C@]1(/N=C/C=C/c1ccccc1C)c1ccc(=O)[nH]c1C2 [Example 5, (5R,9R,11E)-5-(3-(2-methylphenyl)prop-2-en-1-ylideneamino)-11-ethylidene-5,6,9,10-tetrahydro-7-methyl-5,9-methanocycloocta[b]pyridin-2(1H)-one] | 27.6 ± 6.22 s | 12.8 ± 3.12 s | –
4 | C/C=C1\[C@H]2C=C(C)C[C@]1(/N=C/C=C/c1ccc(C)cc1)c1ccc(=O)[nH]c1C2 [Example 6, (5R,9R,11E)-5-(3-(4-methylphenyl)prop-2-en-1-ylideneamino)-11-ethylidene-5,6,9,10-tetrahydro-7-methyl-5,9-methanocycloocta[b]pyridin-2(1H)-one] | – | – | pain-threshold after administration (time course, 0.76 mg/kg intragastric, 30 min): 24.8 ± 8.77 s; pain-threshold after administration (time course, 0.76 mg/kg intragastric, 60 min): 31.9 ± 7.76 s; pain-threshold after administration (time course, 0.76 mg/kg intragastric, 120 min): 22.6 ± 8.37 s; pain-threshold after administration (time course, 0.76 mg/kg intragastric, 180 min): 25.9 ± 11.50 s; pain-threshold after administration (time course, 0.76 mg/kg intragastric, 240 min): 24.5 ± 10.55 s; pain-threshold before administration (time course, group dosed 0.76 mg/kg intragastric, baseline): 11.6 ± 4.14 s
5 | C/C=C1\[C@H]2C=C(C)C[C@]1(/N=C/C=C(\C)c1ccccc1)c1ccc(=O)[nH]c1C2 [Example 7, (5R,9R,11E)-5-(3-methyl-3-phenylprop-2-en-1-ylideneamino)-11-ethylidene-5,6,9,10-tetrahydro-7-methyl-5,9-methanocycloocta[b]pyridin-2(1H)-one] | 24.6 ± 5.61 s | 12.4 ± 2.33 s | –
6 | C/C=C1\[C@H]2C=C(C)C[C@]1(/N=C/C=C/C=C/c1ccccc1)c1ccc(=O)[nH]c1C2 [Example 8, (5R,9R,11E)-5-(5-phenylpenta-2,4-dien-1-ylideneamino)-11-ethylidene-5,6,9,10-tetrahydro-7-methyl-5,9-methanocycloocta[b]pyridin-2(1H)-one] | 23.0 ± 3.52 s | – | –
7 | C/C=C1\[C@H]2C=C(C)C[C@]1(/N=C/C=C/C=C/C=C/c1ccccc1)c1ccc(=O)[nH]c1C2 [Example 9, (5R,9R,11E)-5-(7-phenylhepta-2,4,6-trien-1-ylideneamino)-11-ethylidene-5,6,9,10-tetrahydro-7-methyl-5,9-methanocycloocta[b]pyridin-2(1H)-one] | 25.8 ± 4.35 s | 12.4 ± 2.58 s | –
8 | C/C=C1\[C@H]2C=C(C)C[C@]1(N=CC(Br)=Cc1ccccc1)c1ccc(=O)[nH]c1C2 [Example 10, (5R,9R,11E)-5-(2-bromo-3-phenylprop-2-en-1-ylideneamino)-11-ethylidene-5,6,9,10-tetrahydro-7-methyl-5,9-methanocycloocta[b]pyridin-2(1H)-one] | 21.0 ± 3.16 s | 11.8 ± 3.54 s | –
9 | C/C=C1\[C@H]2C=C(C)C[C@]1(/N=C/C=C/c1cccc(Br)c1)c1ccc(=O)[nH]c1C2 [Example 11, (5R,9R,11E)-5-(3-(3-bromophenyl)prop-2-en-1-ylideneamino)-11-ethylidene-5,6,9,10-tetrahydro-7-methyl-5,9-methanocycloocta[b]pyridin-2(1H)-one] | 23.0 ± 4.98 s | 12.8 ± 3.12 s | –
10 | C/C=C1\[C@H]2C=C(C)C[C@]1(/N=C/C=C/c1ccccc1Br)c1ccc(=O)[nH]c1C2 [Example 12, (5R,9R,11E)-5-(3-(2-bromophenyl)prop-2-en-1-ylideneamino)-11-ethylidene-5,6,9,10-tetrahydro-7-methyl-5,9-methanocycloocta[b]pyridin-2(1H)-one] | 19.6 ± 4.03 s | 12.4 ± 2.58 s | –
11 | C/C=C1\[C@H]2C=C(C)C[C@]1(/N=C/C=C/c1ccc(Br)cc1)c1ccc(=O)[nH]c1C2 [Example 13, (5R,9R,11E)-5-(3-(4-bromophenyl)prop-2-en-1-ylideneamino)-11-ethylidene-5,6,9,10-tetrahydro-7-methyl-5,9-methanocycloocta[b]pyridin-2(1H)-one] | 22.0 ± 4.86 s | – | –
12 | C/C=C1\[C@H]2C=C(C)C[C@]1(/N=C/C=C/c1cccc(Cl)c1)c1ccc(=O)[nH]c1C2 [Example 15, (5R,9R,11E)-5-(3-(3-chlorophenyl)prop-2-en-1-ylideneamino)-11-ethylidene-5,6,9,10-tetrahydro-7-methyl-5,9-methanocycloocta[b]pyridin-2(1H)-one] | 28.8 ± 3.92 s | 13.0 ± 3.63 s | –
13 | C/C=C1\[C@H]2C=C(C)C[C@]1(/N=C/C=C/c1ccccc1Cl)c1ccc(=O)[nH]c1C2 [Example 16, (5R,9R,11E)-5-(3-(2-chlorophenyl)prop-2-en-1-ylideneamino)-11-ethylidene-5,6,9,10-tetrahydro-7-methyl-5,9-methanocycloocta[b]pyridin-2(1H)-one] | 27.4 ± 5.16 s | 13.2 ± 3.76 s | –
14 | C/C=C1\[C@H]2C=C(C)C[C@]1(/N=C/C=C/c1ccc(OC)cc1)c1ccc(=O)[nH]c1C2 [Example 17, (5R,9R,11E)-5-(3-(4-methoxylphenyl)prop-2-en-1-ylideneamino)-11-ethylidene-5,6,9,10-tetrahydro-7-methyl-5,9-methanocycloocta[b]pyridin-2(1H)-one] | 24.6 ± 5.46 s | 12.2 ± 2.14 s | –
15 | C/C=C1\[C@H]2C=C(C)C[C@]1(/N=C/C=C/c1ccccc1OC)c1ccc(=O)[nH]c1C2 [Example 18, (5R,9R,11E)-5-(3-(2-methoxylphenyl)prop-2-en-1-ylideneamino)-11-ethylidene-5,6,9,10-tetrahydro-7-methyl-5,9-methanocycloocta[b]pyridin-2(1H)-one] | 26.0 ± 5.01 s | 13.0 ± 3.03 s | –
16 | C/C=C1\[C@H]2C=C(C)C[C@]1(/N=C/C=C/c1cccc(OC)c1)c1ccc(=O)[nH]c1C2 [Example 19, (5R,9R,11E)-5-(3-(3-methoxylphenyl)prop-2-en-1-ylideneamino)-11-ethylidene-5,6,9,10-tetrahydro-7-methyl-5,9-methanocycloocta[b]pyridin-2(1H)-one] | 18.6 ± 3.44 s | 12.0 ± 2.53 s | –
17 | C/C=C1\[C@H]2C=C(C)C[C@]1(N=CC=Cc1ccncc1)c1ccc(=O)[nH]c1C2 [Example 20, (5R,9R,11E)-5-(3-(pyridin-4-yl)prop-2-en-1-ylideneamino)-11-ethylidene-5,6,9,10-tetrahydro-7-methyl-5,9-methanocycloocta[b]pyridin-2(1H)-one] | 25.0 ± 5.18 s | 12.6 ± 2.42 s | –
